From patent publication US20130072523A1, “ANALOGUES FOR THE TREATMENT OR PREVENTION OF FLAVIVIRUS INFECTIONS” (VERTEX PHARMACEUTICALS INCORPORATED, priority 2009, published 2013) come the findings set out here.

Assay [1] relates to sub-genomic HCV replicon of genotype 1a. The assay can be described thus: Activity determination using the ELISA and the sub-genomic replicon 1a cell line (NS5A protein level, W11.8 cells). The format is cell-based. Particulars: Hepatitis C virus, W11.8, 96 h, drug treatment for four days. An excerpt: Activity Determination Using the ELISA and the Sub-Genomic Replicon 1a Cell Line
The cell line W11.8 containing the sub-genomic HCV replicon of genotype 1a is used to determine the potency of the drugs. The RNA replication in presence of different drug concentrations is indirectly measured in this cell line by the level of NS5A protein content upon drug treatment for four days. It is shown that the level of the NS5A protein correlates well with the level of HCV RNA in the replicon cell line. Cells are split twice a week in order to keep the confluence state below 85% of the culture flask surface area. The culture media used for cell passaging consists of DMEM-10% foetal bovine serum with 100 UI/mL penicillin, 100 μg/mL streptomycin, 2 mM glutamine, 1 mM sodium pyruvate, non-essential amino acids (1×) and 600 μg/mL of G418 final concentrations. Monolayer of the W11.8 cells is trypsinized and cells are counted. Cells are diluted at 50,000 cells/mL with complete DMEM without G418, then approximately 5,000 viable cells (100 μL) are plated per well in a white opaque 96-well microtiter plate. After an incubation period of 2-4 hours at 37° C. in a 5% CO2 incubator, compounds are added at various concentrations. Drugs are resuspended in DMSO at a stock concentration of 10 mM. Then, drugs are serially diluted at twice the final concentration in the same medium. One volume (100 μL) of each drug dilution is then added to each well that contains cells.
A control compound is used as an internal standard for each plate assay. Sixteen wells are used as control (0% inhibition) without drug. […] Values from 100% inhibited wells were averaged and used as the background value. Cells are further incubated for four days at 37° C. in a 5% CO2 incubator. Following the incubation time of four days, the media is removed and wells are washed once with 150 μL of PBS at room temperature for five minutes. Cells are then fixed for five minutes using 150 μL per well of cold (−20° C.) fixative solution (50% methanol/50% acetone mix). Cells are then washed twice with 150 μL of PBS (phosphate buffered saline) per well, following the addition of 150 μL of blocking solution, cells are incubated for one hour at 37° C. to block non-specific sites. The blocking solution is removed and cells are washed twice with 150 μL of PBS per well and once with 150 μL of PBSTS solution (PBS/0.1% Triton X-100/0.02% SDS) per well. Then, 50 μL of mouse monoclonal anti-NS5A antibody (Santa Cruz, Cat. No. sc-52417) is added in each well, diluted 1/1,000 in the blocking solution and incubated at 4° C. overnight. Next day, media is removed and plates are washed five times with 150 μL of PBS per well with five-minute incubations at room temperature. Then 50 μL per well of peroxidase-conjugated donkey anti-mouse antibody (Jackson Immunoresearch, Cat. No. 715-036-150) diluted 1/10,000 in the blocking solution is added and incubated at room temperature for three hours on a shaker (500 rpm). Plates are washed four times with 150 μL of PBSTS solution per well and once with 150 μL of PBS. Then, substrate solution (100 μl, SuperSignal ELISA Pico Chemiluminescent Substrate, Fisher Cat. No. 37069) is added in each well and plates are incubated 60 minutes at room temperature prior to reading the luminescence (relative light units) on the Analyst HT plate reader. The percentage of inhibition at each drug concentration tested (in duplicate) is calculated. […]

A further assay relates to HCV 1b genotype. The assay can be described thus: Cell-based luciferase reporter HCV (Ib) RNA replication assay (Huh-ET replicon cells). As to conditions: Hepatitis C virus, 96 h; HCV 1b genotype replicon, 4 days incubation, luciferase readout. From the text: Cell-Based Luciferase Reporter HCV (Ib) RNA Replication Assay Cell Culture
Replicon cell lines Huh-5.2 are derived from the Huh-7 hepatocarcinoma cell line are maintained in culture as generally described in Krieger, N; Lohmann, V; Bartenschlager, R. Enhancement of hepatitis C virus RNA replication by cell culture-adaptive mutations. J. Virol. 2001, 75, 4614-4624. The Huh-5.2 cells contain the highly cell culture-adapted replicon I389 Luc-ubi-neo/NS3-375.1 construct that carries, in addition to the neomycin gene, an integrated copy to the firefly luciferase gene (Krieger, N; Lohmann, V; Bartenschlager, R. Enhancement of hepatitis C virus RNA replication by cell culture-adaptive mutations. J. Virol. 2001, 75, 4614-4624). This cell line allows measurement of HCV RNA replication and translation by measuring luciferase activity. It has been previously shown that the luciferase activity tightly follows the replicon RNA level in these cells (Krieger, N; Lohmann, V; Bartenschlager, R. Enhancement of hepatitis C virus RNA replication by cell culture-adaptive mutations. J. Virol. 2001, 75, 4614-4624). The Huh-ET cell line has the same features as those mentioned for Huh-5.2 cell line, except that ET cells are more robust and contain an adaptative mutation in the HCV NS4B gene instead of NS5A. Both cell lines are maintained in cultures at a sub-confluent level (<85%) as the level of replicon RNA is highest in actively proliferating cells. The culture media used for cell passaging consist of DMEM (Gibco BRL Laboratories, Mississauga, ON, Canada) supplemented with 10% foetal bovine serum with 1% penicilin/streptomycin, 1% glutamine, 1% sodium pyruvate, 1% non-essential amino acids, and 180 μg/ml of G418 final concentration. Cells are incubated at 37° C., in an atmosphere of 5% CO2 and passaged twice a week to maintain sub-confluence.
Approximately 3000 viable Huh-ET cells (100 μl) are plated per well in a white opaque 96-well microtiter plate. The cell culture media used for the assay is the same as described above except that it contains no G418 and no phenol red. After an incubation period of 3-4 hours at 37° C. in a 5% CO2 incubator, compounds (100 μl) are added at various concentrations. Cells are then further incubated for 4 days at 37° C. in a 5% CO2 incubator. Thereafter, the culture media is removed and cells are lysed by the addition of 95 μL of the luciferase buffer (luciferin substrate in buffered detergent). Cell lysates are incubated at room temperature and protected from direct light for at least 10 minutes. Plates are read for luciferase counts using a luminometer (Wallac MicroBeta Trilux, Perkin Elmer™, MA, USA).
The 50% inhibitory concentrations (IC50s) for inhibitory effect are determined from dose response curves using eleven concentrations per compound in duplicate. Curves are fitted to data points using nonlinear regression analysis, and IC50s are interpolated from the resulting curve using GraphPad Prism software, version 2.0 (GraphPad Software Inc., San Diego, Calif., USA).
EC50 ranges are presented in micromolar as follows: μM+++<=0.005<++<=5.0<+.

Molecules are shown by their SMILES.

`COC(=O)N[C@H](C(=O)N1CCC[C@H]1c1ncc(C#Cc2ccc(C#Cc3cnc([C@@H]4CCCN4C(=O)[C@@H](NC(=O)OC)C(C)C)[nH]3)cc2)[nH]1)C(C)C` showed an IC50 in assay [1] of 4800 pM.

As for `COC(=O)N[C@H](C(=O)N1CCC[C@H]1c1ncc(-c2ccc(-c3ccc(-c4cnc([C@@H]5CCCN5C(=O)[C@@H](NC(=O)OC)C(C)C)[nH]4)cc3)cc2)[nH]1)C(C)C`, in assay [1], the concentration for half-maximal inhibition (IC50) was 50 pM.

Consider `COC(=O)N[C@H](C(=O)N1C[C@@H](C)C[C@H]1c1ncc(-c2ccc(-c3ccc(-c4cnc([C@@H]5C[C@H](C)CN5C(=O)[C@@H](NC(=O)OC)C(C)C)[nH]4)cc3)cc2)[nH]1)C(C)C` [Compound 1], for which the IC50 in assay [1] is 17 pM; in the assay with HCV 1b genotype, no more than 5000 pM.

Consider `COC(=O)N[C@H](C(=O)N1C[C@@H](C)C[C@H]1c1ncc(C#Cc2ccc(C#Cc3cnc([C@@H]4C[C@H](C)CN4C(=O)[C@@H](NC(=O)OC)C(C)C)[nH]3)cc2)[nH]1)C(C)C` [Compound 4], for which the IC50 in assay [1] was 55 pM; in the assay on HCV 1b genotype it was no more than 5000 pM.

For the compound `COC(=O)N[C@H](C(=O)N1[C@@H](C)CC[C@H]1c1ncc(C#Cc2ccc(C#Cc3cnc([C@@H]4CC[C@H](C)N4C(=O)[C@@H](NC(=O)OC)C(C)C)[nH]3)cc2)[nH]1)C(C)C` [Example 42], the IC50 in the assay on HCV 1b genotype was no more than 5000 pM.

`COC(=O)N[C@H](C(=O)N1CC(C)(C)C[C@H]1c1ncc(C#Cc2ccc(C#Cc3cnc([C@@H]4CC(C)(C)CN4C(=O)[C@@H](NC(=O)OC)C(C)C)[nH]3)cc2)[nH]1)C(C)C` [Example 43] showed a half-maximal inhibitory concentration (IC50) in the assay on HCV 1b genotype of no more than 5000 pM.

In the case of `COC(=O)N[C@H](C(=O)N1[C@@H](C)CC[C@H]1c1ncc(C#Cc2ccc(C#Cc3cnc([C@@H]4CC[C@H](C)N4C(=O)[C@@H](NC(=O)OC)C(C)C)[nH]3)cc2)[nH]1)C(C)C` [drawing 272], the IC50 in assay [1] came to 240 pM.
